Where a name gives a salt, the structure may show the parent alone.
Tests used:
[1] = target: T1, 5-HT1A receptor (Rattus norvegicus, UniProt P19327); test: 5-HT1A receptor in vitro binding ([3H]8-OH-DPAT, rat hippocampal membranes); parameters: species or system male Sprague-Dawley rats; conditions: inhibition of [3H]8-OH-DPAT (1.0 nM) binding by 50%, pH 7.4, 10 min at 37° C.
T1 construct: the brains were rapidly chilled and dissected to obtain the hippocampi; from tissue; host or cells: hippocampal membranes of male Sprague-Dawley rats
T1 sequence (P19327 1-422): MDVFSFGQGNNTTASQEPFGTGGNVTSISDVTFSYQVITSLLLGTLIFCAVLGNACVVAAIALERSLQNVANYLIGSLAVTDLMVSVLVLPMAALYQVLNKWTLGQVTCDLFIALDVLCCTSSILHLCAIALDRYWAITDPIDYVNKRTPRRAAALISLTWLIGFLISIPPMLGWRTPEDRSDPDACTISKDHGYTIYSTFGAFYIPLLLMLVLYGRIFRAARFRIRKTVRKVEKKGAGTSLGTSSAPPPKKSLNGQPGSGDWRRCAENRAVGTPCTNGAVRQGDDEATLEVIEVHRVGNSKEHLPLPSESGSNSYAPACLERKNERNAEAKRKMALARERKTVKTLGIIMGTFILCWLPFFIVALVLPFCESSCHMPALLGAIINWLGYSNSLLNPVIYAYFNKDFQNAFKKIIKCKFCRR
Procedure: The affinities of certain of the compounds of Formula 1 at the central 5-HT1A receptors were determined using a modification of the binding assay described by Taylor et al., J. Pharmacol. Exp. Ther. 236, 118-125 (1986). Membranes for the binding assay were prepared from male Sprague-Dawley rats (150-250 g). The animals were killed by decapitation, and the brains were rapidly chilled and dissected to obtain the hippocampi. Membranes from the hippocampi were either prepared that day, or the hippocampi were stored frozen (-70° C.) until the day of preparation. The membranes were prepared by homogenizing the tissue in 40 volumes of ice-cold Tris-HCl buffer (50 mM, pH 7.4 at 22° C.) using a Techmar Tissumizer (setting 65 for 15 sec), and the homogenate was centrifuged at 39800× g for 10 minutes. The resulting pellet was then resuspended in the same buffer, and the centrifugation and resuspension process was repeated three additional times to wash the membranes. Between the second and third washes the resuspended membranes were incubated for 10 minutes at 37° C. to facilitate the removal of endogenous ligands. The final pellet was resuspended in 67 mM Tris-HCl, pH 7.4, to a concentration of 2 mg of tissue original wet weight/200 μl. This homogenate was stored frozen (-70° C.) until the day of the binding assay. […] The assay tubes were incubated for 10 minutes at 37° C. and the contents were then rapidly filtered through GF/B filters (pretreated with 0.5% polyethylenimine), followed by four 1 ml washes with ice-cold buffer. The radioactivity trapped by the filters was quantitated by liquid scintillation spectrometry, and specific [^3 H]8-OH-DPAT binding to the 5-HT1A sites was defined as the difference between [^3 H]8-OH-DPAT bound in the presence and absence of 10 μM 5-HT.
In Table 1, the first column provides the Example Number of the compound evaluated while the second column provides the amount of test compound (expressed in nanomolar concentration) required to inhibit the binding of [^3 H]8-OH-DPAT by 50% (indicated as IC50).

[2] = target: 5-HT1D receptor; test: 5-HT1D receptor in vitro binding ([3H]5-HT, bovine caudate membranes); conditions: inhibition of [3H]5-HT (1.7-1.9 nM) binding by 50%, 8-OH-DPAT and mesulergine (100 nM each) as masks, pH 7.4, 10 min at 37° C.
Procedure: The affinities of certain of the compounds of Formula 1 at the central 5-HT1D binding sites were determined using a modification of the binding assay described by Heuring and Peroutka, J. Neurosci., 7, 894 (1987). Bovine brains were obtained and the caudate nuclei were dissected out and frozen at -70° C. until the time that the membranes were prepared for the binding assays. At that time the tissues were homogenized in 40 volumes of ice-cold Tris-HCl buffer (50 mM, pH 7.4 at 22° C.) with a Techmar Tissumizer (setting 65 for 15 sec), and the homogenate was centrifuged at 39,800× g for 10 minutes. The resulting pellet was then resuspended in the same buffer, and the centrifugation and resuspension process was repeated three additional times to wash the membranes. Between the second and third washes the resuspended membranes were incubated for 10 minutes at 37° C. to facilitate the removal of endogenous 5-HT. The final pellet was resuspended in the buffer to a concentration of 25 mg of original tissue wet weight/ml for use in the binding assay. […] The assay tubes were incubated for 10 minutes at 37° C. and the contents were then rapidly filtered through GF/B filters (pretreated with 0.5% polyethylenimine), followed by four 1 ml washes with ice-cold buffer. The radioactivity trapped by the filters was quantitated by liquid scintillation spectrometry, and specific [^3 H]5-HT binding to the 5-HT1D sites was defined as the difference between [^3 H]5-HT bound in the presence and absence of 10 μM 5-HT.
In Table 2, the first column provides the Example Number of the compound evaluated while the second column provides the amount of test compound (expressed in nanomolar concentration) required to inhibit the binding of [^3 H]5-HT by 50% (indicated as IC50).

IC50 [1] [nM]	IC50 [2] [nM]	SMILES
105	–	CCCN(CCC)[C@@H]1Cc2c(-c3nc(-c4ccccc4)no3)ccc3c2[C@H](CN3)C1 [Example 12, (2aR,4S)-6-(3-phenyl-1,2,4-oxadiazol-5-yl)-4-(di-n-propylamino)-1,2,2a,3,4,5-hexahydrobenz[cd]indole]
1.95	23.6	CCCN(CCC)C1Cc2c(-c3ccno3)ccc3c2C(CN3)C1 (racemic) [Example 7, (±)-6-(5-isoxazolyl)-4-(di-n-propylamino)-1,2,2a,3,4,5-hexahydrobenz[cd]indole.2HCl]
2.74	19.4	CCCN(CCC)[C@H]1Cc2c(-c3ccoc3)ccc3c2[C@@H](CN3)C1 [Example 15, (+)(2aS,4R)-6-(3-furyl)-4-(di-n-propylamino)-1,2,2a,3,4,5-hexahydrobenz[cd]indole]
0.91	9.12	CCCN(CCC)[C@H]1Cc2c(-c3ccon3)ccc3c2[C@@H](CN3)C1 [Example 8, (+)(2aS,4R)-6-(3-isoxazolyl)-4-(di-n-propylamino)-1,2,2a,3,4,5-hexahydrobenz[cd]indole.2 HCl]
2.08	1380	CCCN(CCC)[C@@H]1Cc2c(-c3ccno3)ccc3c2[C@H](CN3)C1 [Example 11, (-)(2aR,4S)-6-(5-isoxazolyl)-4-(di-n-propylamino)-1,2,2a,3,4,5-hexahydrobenz[cd]indole.2 HCl]
6.37	30	CCCN(CCC)[C@H]1Cc2c(-c3cc[nH]n3)ccc3c2[C@@H](CN3)C1 [Example 6, (+)(2aS,4R)-6-(3-pyrazolyl)-4-(di-n-propylamino)-1,2,2a,3,4,5-hexahydrobenz[cd]indole.2HCL]
0.73	11.2	CCCN(CCC)[C@H]1Cc2c(-c3ccno3)ccc3c2[C@@H](CN3)C1 [Example 10, (+)(2aS, 4R)-6-(5-isoxazolyl)-4-(di-n-propylamino)-1,2,2a,3,4,5-hexahydrobenz[cd]indole.2 HCl]
5.3	43.1	CCCN(CCC)[C@H]1Cc2c(-c3ccco3)ccc3c2[C@@H](CN3)C1 [Example 14, (+)(2aS,4R)-6-(2-furyl)-4-(di-n-propylamino)-1,2,2a,3,4,5-hexahydrobenz[cd]indole]
1.92	40.3	CCCN(CCC)[C@H]1Cc2c(-c3cccnc3)ccc3c2[C@@H](CN3)C1 [Example 18, (+)(2aS,4R)-6-(3-pyridyl)-4-(di-n-propylamino)-1,2,2a,3,4,5-hexahydrobenz[cd]indole]
17.3	163	CCCN(CCC)[C@H]1Cc2c(-c3ccccn3)ccc3c2[C@@H](CN3)C1 [Example 17, (+)(2aS, 4R)-6-(2-pyridyl)-4-(di-n-propylamino)-1,2,2a,3,4,5-hexahydrobenz[cd]indol]
21.1	1890	CCCN(CCC)[C@@H]1Cc2c(-c3ccco3)ccc3c2[C@H](CN3)C1 [Example 13, (-)(2aR,4S)-6-(2-furyl)-4-(di-n-propylamino)-1,2,2a,3,4,5-hexahydrobenz[cd]indole]
